From ChEMBL document CHEMBL1143427, “Interactions of ceftobiprole with beta-lactamases from molecular classes A to D” (Antimicrob Agents Chemother, 2007)

Tests used:
[1] = molecular target: Beta-lactamase TEM (Escherichia coli) (UniProt P62593); experiment: Ratio of Kcat to Km of Escherichia coli TEM1 assessed as drug hydrolysis by spectrophotometry relative to cephaloridine; set-up: scale not given: the % may be the effect or the level left
[2] = molecular target: T1, Beta-lactamase SHV-1 (Klebsiella pneumoniae) (UniProt P0AD64); experiment: Activity of Klebsiella pneumoniae SHV1 assessed as drug hydrolysis by spectrophotometry relative to cephaloridine; set-up: scale not given: the % may be the effect or the level left
T1 sequence (whole entry): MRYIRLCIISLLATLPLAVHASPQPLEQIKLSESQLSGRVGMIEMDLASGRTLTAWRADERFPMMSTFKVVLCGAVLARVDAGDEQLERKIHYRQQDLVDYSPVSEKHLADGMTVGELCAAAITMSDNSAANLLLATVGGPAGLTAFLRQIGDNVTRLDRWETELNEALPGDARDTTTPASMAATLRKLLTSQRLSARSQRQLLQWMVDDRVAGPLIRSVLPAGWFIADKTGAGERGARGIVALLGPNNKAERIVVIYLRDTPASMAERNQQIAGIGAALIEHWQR

[3] = molecular target: T1, Beta-lactamase SHV-1 (Klebsiella pneumoniae); experiment: Ratio of Kcat to Km of Klebsiella pneumoniae SHV1 assessed as drug hydrolysis by spectrophotometry relative to cephaloridine; set-up: scale not given: the % may be the effect or the level left
[4] = molecular target: Beta-lactamase CTX-M (Escherichia coli) (UniProt Q9EXV5); experiment: Activity of Escherichia coli CTX-M-15 assessed as drug hydrolysis by spectrophotometry relative to cephaloridine; set-up: scale not given: the % may be the effect or the level left
[5] = molecular target: Beta-lactamase CTX-M (Escherichia coli) (UniProt Q9EXV5); experiment: Ratio of Kcat to Km of Escherichia coli CTX-M-15 assessed as drug hydrolysis by spectrophotometry relative to cephaloridine; set-up: scale not given: the % may be the effect or the level left
[6] = molecular target: T2, Beta-lactamase (Klebsiella oxytoca) (UniProt Q8RT60); experiment: Activity of Klebsiella oxytoca beta-lactamase K1 assessed as drug hydrolysis by spectrophotometry relative to cephaloridine; set-up: scale not given: the % may be the effect or the level left
T2 sequence (whole entry): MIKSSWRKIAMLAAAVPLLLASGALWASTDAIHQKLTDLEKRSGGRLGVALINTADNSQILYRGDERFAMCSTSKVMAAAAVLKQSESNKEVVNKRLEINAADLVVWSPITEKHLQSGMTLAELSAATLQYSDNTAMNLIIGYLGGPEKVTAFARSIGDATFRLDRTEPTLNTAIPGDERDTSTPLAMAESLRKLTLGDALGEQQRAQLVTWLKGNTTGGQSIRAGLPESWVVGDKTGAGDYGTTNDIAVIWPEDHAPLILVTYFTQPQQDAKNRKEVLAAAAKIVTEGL

[7] = molecular target: T2, Beta-lactamase (Klebsiella oxytoca); experiment: Ratio of Kcat to Km of Klebsiella oxytoca beta-lactamase K1 assessed as drug hydrolysis by spectrophotometry relative to cephaloridine; set-up: scale not given: the % may be the effect or the level left
Klebsiella pneumoniae [8] = experiment: Activity of Klebsiella pneumoniae TEM26 assessed as drug hydrolysis by spectrophotometry
Klebsiella pneumoniae [9] = experiment: Activity of Klebsiella pneumoniae TEM26 assessed as drug hydrolysis by spectrophotometry relative to cephaloridine; set-up: scale not given: the % may be the effect or the level left
Klebsiella pneumoniae [10] = experiment: Ratio of Kcat to Km of Klebsiella pneumoniae TEM26 assessed as drug hydrolysis by spectrophotometry
Klebsiella pneumoniae [11] = experiment: Ratio of Kcat to Km of Klebsiella pneumoniae TEM26 assessed as drug hydrolysis by spectrophotometry relative to cephaloridine; set-up: scale not given: the % may be the effect or the level left
[12] = molecular target: T3, Carbapenem-hydrolyzing beta-lactamase SME-3 (Serratia marcescens) (UniProt Q6PRG8); experiment: Activity of Serratia marcescens SME3 assessed as drug hydrolysis by spectrophotometry relative to cephaloridine; set-up: scale not given: the % may be the effect or the level left
T3 sequence (whole entry): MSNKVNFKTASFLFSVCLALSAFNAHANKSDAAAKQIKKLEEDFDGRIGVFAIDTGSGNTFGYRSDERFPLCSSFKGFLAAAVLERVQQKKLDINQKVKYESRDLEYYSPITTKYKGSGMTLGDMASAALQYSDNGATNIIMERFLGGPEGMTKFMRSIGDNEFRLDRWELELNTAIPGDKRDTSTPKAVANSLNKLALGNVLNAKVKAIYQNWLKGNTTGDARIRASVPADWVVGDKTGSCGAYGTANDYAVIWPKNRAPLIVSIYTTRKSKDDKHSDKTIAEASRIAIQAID

[13] = molecular target: T3, Carbapenem-hydrolyzing beta-lactamase SME-3 (Serratia marcescens); experiment: Ratio of Kcat to Km of Serratia marcescens SME3 assessed as drug hydrolysis by spectrophotometry relative to cephaloridine; set-up: scale not given: the % may be the effect or the level left
[14] = molecular target: Beta-lactamase VIM-2 (Pseudomonas aeruginosa) (UniProt Q9K2N0); experiment: Activity of Pseudomonas aeruginosa VIM2 assessed as drug hydrolysis by spectrophotometry relative to cephaloridine; set-up: scale not given: the % may be the effect or the level left
[15] = molecular target: Metallo beta-lactamase (Pseudomonas aeruginosa) (UniProt Q6TUJ4); experiment: Ratio of Kcat to Km of Pseudomonas aeruginosa IMP1 assessed as drug hydrolysis by spectrophotometry relative to cephaloridine; set-up: scale not given: the % may be the effect or the level left
[16] = molecular target: Beta-lactamase VIM-2 (Pseudomonas aeruginosa) (UniProt Q9K2N0); experiment: Ratio of Kcat to Km of Pseudomonas aeruginosa VIM2 assessed as drug hydrolysis by spectrophotometry relative to cephaloridine; set-up: scale not given: the % may be the effect or the level left
[17] = molecular target: Beta-lactamase (Morganella morganii) (UniProt P94958); experiment: Activity of Morganella morganii AmpC assessed as drug hydrolysis by spectrophotometry relative to cephaloridine; set-up: scale not given: the % may be the effect or the level left
[18] = molecular target: Beta-lactamase TEM (Escherichia coli) (UniProt P62593); experiment: Activity of Escherichia coli TEM1 assessed as drug hydrolysis by spectrophotometry relative to cephaloridine; set-up: scale not given: the % may be the effect or the level left
[19] = molecular target: Beta-lactamase (Staphylococcus aureus) (UniProt P00807); experiment: Ratio of Kcat to Km of Staphylococcus aureus betalactamase PC1 assessed as drug hydrolysis by spectrophotometry relative to cephaloridine; set-up: scale not given: the % may be the effect or the level left
[20] = molecular target: Beta-lactamase (Staphylococcus aureus) (UniProt P00807); experiment: Activity of Staphylococcus aureus betalactamase PC1 assessed as drug hydrolysis by spectrophotometry relative to cephaloridine; set-up: scale not given: the % may be the effect or the level left
[21] = molecular target: Beta-lactamase (Morganella morganii) (UniProt P94958); experiment: Ratio of Kcat to Km of Morganella morganii AmpC assessed as drug hydrolysis by spectrophotometry relative to cephaloridine; set-up: scale not given: the % may be the effect or the level left
[22] = molecular target: T4, Beta-lactamase (Providencia stuartii) (UniProt O69773); experiment: Activity of Providencia stuartii AmpC assessed as drug hydrolysis by spectrophotometry relative to cephaloridine; set-up: scale not given: the % may be the effect or the level left
T4 sequence (whole entry): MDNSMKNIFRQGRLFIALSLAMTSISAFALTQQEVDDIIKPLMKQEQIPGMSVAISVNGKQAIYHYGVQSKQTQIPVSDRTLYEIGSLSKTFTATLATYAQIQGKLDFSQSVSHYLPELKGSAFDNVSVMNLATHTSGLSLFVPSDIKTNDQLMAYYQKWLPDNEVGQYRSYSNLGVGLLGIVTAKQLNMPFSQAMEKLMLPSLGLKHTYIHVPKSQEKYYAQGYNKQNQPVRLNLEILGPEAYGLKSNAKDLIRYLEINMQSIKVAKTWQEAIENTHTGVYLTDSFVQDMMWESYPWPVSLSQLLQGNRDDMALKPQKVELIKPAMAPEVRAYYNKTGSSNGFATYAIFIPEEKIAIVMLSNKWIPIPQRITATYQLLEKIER

[23] = molecular target: T4, Beta-lactamase (Providencia stuartii); experiment: Ratio of Kcat to Km of Providencia stuartii AmpC assessed as drug hydrolysis by spectrophotometry relative to cephaloridine; set-up: scale not given: the % may be the effect or the level left
[24] = molecular target: Beta-lactamase (Pseudomonas aeruginosa (strain ATCC 15692 / PAO1 / 1C / PRS 101 / LMG12228)) (UniProt P24735); experiment: Activity of Pseudomonas aeruginosa 4352 AmpC assessed as drug hydrolysis by spectrophotometry relative to cephaloridine; set-up: scale not given: the % may be the effect or the level left
[25] = molecular target: Beta-lactamase (Pseudomonas aeruginosa (strain ATCC 15692 / PAO1 / 1C / PRS 101 / LMG12228)) (UniProt P24735); experiment: Ratio of Kcat to Km of Pseudomonas aeruginosa 4352 AmpC assessed as drug hydrolysis by spectrophotometry relative to cephaloridine; set-up: scale not given: the % may be the effect or the level left
[26] = molecular target: Beta-lactamase (Pseudomonas aeruginosa (strain ATCC 15692 / PAO1 / 1C / PRS 101 / LMG12228)) (UniProt P24735); experiment: Activity of Pseudomonas aeruginosa 18SH AmpC assessed as drug hydrolysis by spectrophotometry relative to cephaloridine; set-up: scale not given: the % may be the effect or the level left
[27] = molecular target: Beta-lactamase (Pseudomonas aeruginosa (strain ATCC 15692 / PAO1 / 1C / PRS 101 / LMG12228)) (UniProt P24735); experiment: Ratio of Kcat to Km of Pseudomonas aeruginosa 18SH AmpC assessed as drug hydrolysis by spectrophotometry relative to cephaloridine; set-up: scale not given: the % may be the effect or the level left
[28] = molecular target: Beta-lactamase (Pseudomonas aeruginosa (strain ATCC 15692 / PAO1 / 1C / PRS 101 / LMG12228)) (UniProt P24735); experiment: Activity of Pseudomonas aeruginosa MK-1184 AmpC assessed as drug hydrolysis by spectrophotometry relative to cephaloridine; set-up: scale not given: the % may be the effect or the level left
[29] = molecular target: Beta-lactamase (Pseudomonas aeruginosa (strain ATCC 15692 / PAO1 / 1C / PRS 101 / LMG12228)) (UniProt P24735); experiment: Ratio of Kcat to Km of Pseudomonas aeruginosa MK-1184 AmpC assessed as drug hydrolysis by spectrophotometry relative to cephaloridine; set-up: scale not given: the % may be the effect or the level left
[30] = molecular target: Beta-lactamase (Serratia marcescens) (UniProt P18539); experiment: Activity of Serratia marcescens AmpC assessed as drug hydrolysis by spectrophotometry relative to cephaloridine; set-up: scale not given: the % may be the effect or the level left
[31] = molecular target: Beta-lactamase (Serratia marcescens) (UniProt P18539); experiment: Ratio of Kcat to Km of Serratia marcescens AmpC assessed as drug hydrolysis by spectrophotometry relative to cephaloridine; set-up: scale not given: the % may be the effect or the level left
[32] = molecular target: Beta-lactamase (Pseudomonas aeruginosa (strain ATCC 15692 / PAO1 / 1C / PRS 101 / LMG12228)) (UniProt P24735); experiment: Activity of Pseudomonas aeruginosa AmpC assessed as drug hydrolysis by spectrophotometry relative to cephaloridine; set-up: scale not given: the % may be the effect or the level left
[33] = molecular target: Beta-lactamase (Pseudomonas aeruginosa (strain ATCC 15692 / PAO1 / 1C / PRS 101 / LMG12228)) (UniProt P24735); experiment: Ratio of Kcat to Km of Pseudomonas aeruginosa AmpC assessed as drug hydrolysis by spectrophotometry relative to cephaloridine; set-up: scale not given: the % may be the effect or the level left

Beta-lactamase (Serratia marcescens), sequence (P18539 whole entry): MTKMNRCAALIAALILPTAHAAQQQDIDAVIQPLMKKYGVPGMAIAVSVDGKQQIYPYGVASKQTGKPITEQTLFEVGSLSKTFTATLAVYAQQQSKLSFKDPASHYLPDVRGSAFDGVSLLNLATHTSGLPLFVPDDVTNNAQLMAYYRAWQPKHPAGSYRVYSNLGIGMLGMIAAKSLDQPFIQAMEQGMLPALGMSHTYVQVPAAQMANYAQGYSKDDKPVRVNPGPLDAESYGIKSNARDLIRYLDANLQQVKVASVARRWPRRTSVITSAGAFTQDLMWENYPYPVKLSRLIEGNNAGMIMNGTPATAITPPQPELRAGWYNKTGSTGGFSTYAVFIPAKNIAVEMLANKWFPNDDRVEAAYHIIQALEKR
Beta-lactamase (Staphylococcus aureus), sequence (P00807 whole entry): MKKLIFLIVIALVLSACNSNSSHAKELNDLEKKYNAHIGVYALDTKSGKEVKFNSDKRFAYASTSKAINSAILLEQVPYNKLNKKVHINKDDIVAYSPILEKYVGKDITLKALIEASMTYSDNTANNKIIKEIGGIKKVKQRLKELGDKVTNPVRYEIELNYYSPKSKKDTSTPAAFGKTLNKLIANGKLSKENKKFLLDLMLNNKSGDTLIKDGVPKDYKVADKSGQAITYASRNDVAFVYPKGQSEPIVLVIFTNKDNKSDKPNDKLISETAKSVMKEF
Beta-lactamase (Pseudomonas aeruginosa (strain ATCC 15692 / PAO1 / 1C / PRS 101 / LMG12228)), sequence (P24735 27-397 limits assumed): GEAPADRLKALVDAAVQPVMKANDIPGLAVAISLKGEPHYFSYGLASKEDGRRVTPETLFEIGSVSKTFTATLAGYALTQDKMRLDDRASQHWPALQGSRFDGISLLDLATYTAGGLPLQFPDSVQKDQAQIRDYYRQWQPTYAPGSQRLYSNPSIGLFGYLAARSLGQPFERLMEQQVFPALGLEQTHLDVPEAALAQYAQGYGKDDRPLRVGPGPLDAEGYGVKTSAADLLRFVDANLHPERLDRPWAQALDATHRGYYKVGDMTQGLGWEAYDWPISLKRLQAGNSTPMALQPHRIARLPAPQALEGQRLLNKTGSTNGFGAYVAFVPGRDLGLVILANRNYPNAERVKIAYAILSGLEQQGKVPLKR
Beta-lactamase TEM (Escherichia coli), sequence (P62593 whole entry): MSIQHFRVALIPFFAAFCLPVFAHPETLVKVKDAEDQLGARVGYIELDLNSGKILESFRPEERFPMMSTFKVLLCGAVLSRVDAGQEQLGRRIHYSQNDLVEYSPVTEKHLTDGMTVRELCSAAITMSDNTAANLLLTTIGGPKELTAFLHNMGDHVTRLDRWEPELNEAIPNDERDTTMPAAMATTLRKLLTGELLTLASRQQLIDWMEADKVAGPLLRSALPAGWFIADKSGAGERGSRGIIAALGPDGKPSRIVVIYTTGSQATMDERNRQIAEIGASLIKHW
Metallo beta-lactamase (Pseudomonas aeruginosa), sequence (Q6TUJ4 as listed by the source): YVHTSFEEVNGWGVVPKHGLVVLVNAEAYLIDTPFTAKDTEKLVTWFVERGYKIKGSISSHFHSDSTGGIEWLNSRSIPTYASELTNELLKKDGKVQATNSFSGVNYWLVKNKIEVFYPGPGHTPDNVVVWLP

| Compound | Activity [1] | Activity [2] | Activity [3] | Activity [4] | Activity [5] | Activity [6] | Activity [7] | Km (Klebsiella pneumoniae [8]) | kcat (Klebsiella pneumoniae [8]) | Activity (Klebsiella pneumoniae [9]) | kcat/Km (Klebsiella pneumoniae [10]) | Activity (Klebsiella pneumoniae [11]) | Activity [12] | Activity [13] | Activity [14] | Activity [15] | Activity [16] | Activity [17] | Activity [18] | Activity [19] | also measured |
| --- | --- | --- | --- | --- | --- | --- | --- | --- | --- | --- | --- | --- | --- | --- | --- | --- | --- | --- | --- | --- | --- |
| CC1(C)S[C@@H]2[C@H](NC(=O)Cc3ccccc3)C(=O)N2[C@H]1C(=O)O | 5600% | 260% | 2600% | 25% | 110% | 160% | 400% | 5 µM | 76 s⁻¹ | 210% | 15 s⁻¹ µM⁻¹ | 2700% | 0.73% | 130% | 61% | 750% | 570% | 26% | 122% | 1.5e+06% | Activity [20]: 46000%; Activity [21]: 860%; Activity [22]: 0.62%; Activity [23]: 43%; Activity [24]: 37%; Activity [25]: 1100%; Activity [26]: 35%; Activity [27]: 61%; Activity [28]: 91%; Activity [29]: 670%; Activity [30]: 0.95%; Activity [31]: 290%; Activity [32]: 540%; Activity [33]: 14000% |
| O=C(Cc1cccs1)N[C@@H]1C(=O)N2C(C(=O)[O-])=C(C[n+]3ccccc3)CS[C@H]12 | – | – | – | – | – | – | – | 66 µM | 37 s⁻¹ | – | 0.56 s⁻¹ µM⁻¹ | – | – | – | – | – | – | – | – | – | – |
| Nc1nc(/C(=N/O)C(=O)N[C@@H]2C(=O)N3C(C(=O)O)=C(/C=C4\CCN([C@@H]5CCNC5)C4=O)CS[C@H]23)ns1 | 1.6% | 6% | 7.4% | 140% | 290% | 33% | 100% | 63 µM | 6.9 s⁻¹ | 19% | 0.11 s⁻¹ µM⁻¹ | 20% | 0.49% | 0.73% | 13% | 990% | 380% | < 0.0064% | 0.9% | 24% | Activity [20]: 17%; Activity [21]: < 0.071%; Activity [22]: 0.03%; Activity [23]: 0.11%; Activity [24]: < 0.024%; Activity [25]: 0.14%; Activity [26]: 0.028%; Activity [27]: 0.71%; Activity [28]: 2%; Activity [29]: 1%; Activity [30]: < 0.14%; Activity [31]: < 0.27%; Activity [32]: 1400%; Activity [33]: 9900% |
